In patent US8431593B2, “Heteroaryl amide derivatives” (H. Lundbeck A/S, priority 2006, dated 2013):

Target: T1, P2X7 receptor (Homo sapiens, UniProt Q99572)
T1 construct: host or cells: SH-SY5Y
T1 sequence (Q99572 1-595): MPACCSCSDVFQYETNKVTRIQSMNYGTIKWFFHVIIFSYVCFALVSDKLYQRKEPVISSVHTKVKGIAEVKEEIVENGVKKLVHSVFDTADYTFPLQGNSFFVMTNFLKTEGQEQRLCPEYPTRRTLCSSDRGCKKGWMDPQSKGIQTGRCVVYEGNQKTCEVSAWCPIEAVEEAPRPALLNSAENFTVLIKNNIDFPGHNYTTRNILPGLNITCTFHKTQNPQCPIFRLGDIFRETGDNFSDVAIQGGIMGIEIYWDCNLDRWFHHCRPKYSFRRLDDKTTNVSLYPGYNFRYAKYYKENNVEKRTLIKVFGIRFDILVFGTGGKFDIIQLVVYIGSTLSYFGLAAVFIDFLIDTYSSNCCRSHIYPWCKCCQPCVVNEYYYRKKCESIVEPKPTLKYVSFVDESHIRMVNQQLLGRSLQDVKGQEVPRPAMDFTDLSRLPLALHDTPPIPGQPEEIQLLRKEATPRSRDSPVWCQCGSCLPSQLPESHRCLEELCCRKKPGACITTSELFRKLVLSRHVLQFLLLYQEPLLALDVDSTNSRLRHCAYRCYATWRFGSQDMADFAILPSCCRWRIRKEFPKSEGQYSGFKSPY
Assay: P2X7 calcium mobilization assay, high throughput, antagonist activity (Example 4A)
Format: cell-based
Conditions: 50% decrease in the fluorescence response of cells exposed to 80 μM of 2′(3′)-O-(4-benzoyl-benzoyl)adenosine 5′-triphosphate; determined as in Example 4A; read-out: IC50
How it was run: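 Dye-loaded cells (100,000/well, seeded previous day) are pre-exposed to compound for an hour at room temperature. Fluorescence maxima are baseline-corrected against no-agonist wells and compared with the averaged agonist-well maximum.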

IC50, < 2000 nM:
O=C(Cc1cn2c(C(=O)NCC34CC5CC(CC(C5)C3)C4)cccc2n1)N[C@H]1CCNC1 [Compound 911, N-(adamantan-1-ylmethyl)-2-{2-oxo-2-[(3S)-pyrrolidin-3-ylamino]ethyl} imidazo [1,2-a]pyridine-5-carboxamide]
CC(C)CCC(C(=O)O)c1cn2c(C(=O)NCC34CC5CC(CC(C5)C3)C4)cccc2n1 (centres unmarked) [Compound 912, 2-{5-[(adamantan-1-ylmethyl)carbamoyl]imidazo[1,2-a]pyridin-2-yl}-5-methylhexanoic acid]
CCOC(=O)Cc1cn2c(C(=O)NCC(CC(C)C)c3ccc(Cl)cc3)cccc2n1 (centres unmarked) [Compound 913, ethyl (5-{[2-(4-chlorophenyl)-4-methylpentyl]carbamoyl}imidazo[1,2-a]pyridin-2-yl) acetate]
CCOC(=O)Cc1cn2c(C(=O)NCC3(c4ccc(Cl)cc4)CCCCC3)cccc2n1 [Compound 914, ethyl [5-({[1-(4-chlorophenyl)cyclohexyl]methyl}carbamoyl)imidazo[1,2-a]pyridin-2-yl] acetate]
O=C(NCC1(c2ccc(Cl)cc2)CCCCC1)c1cccc2nc(CSc3nnn[nH]3)cn12 [Compound 915, N-{[1-(4-chlorophenyl)cyclohexyl]methyl}-2-[(1H-tetrazol-5-ylthio)methyl] imidazo [1,2-a]pyridine-5-carboxamide]
CC(C)CC(CNC(=O)c1cccc2nc(CN3CCC[C@@H](N)C3)cn12)c1ccc(Cl)cc1 (stereo partly drawn) [Compound 916, 2-{[(3R)-3-aminopiperidin-1-yl]methyl}-N-[2-(4-chlorophenyl)-4-methylpentyl] imidazo [1,2-a]pyridine-5-carboxamide]
Cc1ccc(C(CNC(=O)c2cccc3nc(Cn4nnc(CCO)n4)cn23)CC(C)C)cc1 (centres unmarked) [Compound 917, 2-{[5-(2-hydroxyethyl)-2H-tetrazol-2-yl]methyl}-N-[4-methyl-2-(4-methylphenyl)pentyl] imidazo [1,2-a]pyridine-5-carboxamide]
CC(C)CC(CNC(=O)c1cccc2nc(Cn3nnc(CCO)n3)cn12)c1ccc(Cl)cc1 (centres unmarked) [Compound 918, N-[2-(4-chlorophenyl)-4-methylpentyl]-2-{[5-(2-hydroxyethyl)-2H-tetrazol-2-yl]methyl}imidazo[1,2-a]pyridine-5-carboxamide]
O=C(NCC1(c2ccc(Cl)cc2)CCCCC1)c1cccc2nc(Cn3nnc(CCO)n3)cn12 [Compound 919, N-{[1-(4-chlorophenyl)cyclohexyl]methyl}-2-{[5-(2-hydroxyethyl)-2H-tetrazol-2-yl]methyl}imidazo[1,2-a]pyridine-5-carboxamide]
O=C(NCC1(c2ccc(C(F)(F)F)cc2)CCCCC1)c1cccc2nc(Cn3nnc(CCO)n3)cn12 [Compound 920, 2-{[5-(2-hydroxyethyl)-2H-tetrazol-2-yl]methyl}-N-({1-[4-(trifluoromethyl)phenyl]cyclohexyl}methyl)imidazo [1,2-a]pyridine-5-carboxamide]
O=C(NCC1(c2cccnc2)CCCCC1)c1cccc2nc(Cn3nnc(CCO)n3)cn12 [Compound 921, 2-{[5-(2-hydroxyethyl)-2H-tetrazol-2-yl]methyl}-N-[(1-pyridin-3-ylcyclohexyl)methyl] imidazo[1,2-a] pyridine-5-carboxamide]
Cc1ccc(C2(CNC(=O)c3cccc4nc(Cn5nnc(CCO)n5)cn34)CCCCC2)cn1 [Compound 922, 2-{[5-(2-hydroxyethyl)-2H-tetrazol-2-yl]methyl}-N-{[1-(6-methylpyridin-3-yl)cyclohexyl]methyl} imidazo[1,2-a] pyridine-5-carboxamide]
CC1=NCCN1Cc1cn2c(C(=O)NCC(CC(C)C)c3ccc(Cl)cc3)cccc2n1 (centres unmarked) [Compound 923, N-[2-(4-chlorophenyl)-4-methylpentyl]-2-[(2-methyl-4,5-dihydro-1H-imidazol-1-yl)methyl]imidazo[1,2-a]pyridine-5-carboxamide]
CCCC(CNC(=O)c1cccc2nc(CC(=O)N[C@@H]3CCCN(C(=O)OC(C)(C)C)C3)cn12)c1ccc(Cl)cc1 (stereo partly drawn) [Compound 924, tert-butyl (3R)-3-{[(5-{[2-(4-chlorophenyl)pentyl]carbamoyl}imidazo [1,2-a]pyridin-2-yl)acetyl]amino} piperidine-1-carboxylate]
CCCC(CNC(=O)c1cccc2nc(CC(=O)N[C@@H]3CCCNC3)cn12)c1ccc(Cl)cc1 (stereo partly drawn) [Compound 925, N-[2-(4-chlorophenyl)pentyl]-2-{2-oxo-2-[(3R)-piperidin-3-ylamino]ethyl} imidazo [1,2-a]pyridine-5-carboxamide]
O=C(Cc1cn2c(C(=O)NCC3(c4ccc(Cl)cc4)CCOCC3)cccc2n1)N[C@@H]1CCCNC1 [Compound 926, N-{[4-(4-chlorophenyl)tetrahydro-2H-pyran-4-yl]methyl}-2-{2-oxo-2-[(3R)-piperidin-3-ylamino]ethyl}imidazo [1,2-a]pyridine-5-carboxamide]
CC(C)CC(CNC(=O)c1cccc2nc(CC(=O)N3CCC[C@@H](NC(=O)OC(C)(C)C)C3)cn12)c1ccc(Cl)cc1 (stereo partly drawn) [Compound 928, tert-butyl {(3R)-1-[(5-{[2-(4-chlorophenyl)-4-methylpentyl]carbamoyl}imidazo[1,2-a]pyridin-2-yl)acetyl]piperidin-3-yl}carbamate]
CCCC(CNC(=O)c1cccc2nc(CC(=O)N3CCC[C@@H](N)C3)cn12)c1ccc(Cl)cc1 (stereo partly drawn) [Compound 929, 2-{2-[(3R)-3-aminopiperidin-1-yl]-2-oxoethyl}-N-[2-(4-chlorophenyl)pentyl] imidazo[1,2-a] pyridine-5-carboxamide]
CCOC(=O)C(Cc1ccccn1)c1cn2c(C(=O)NCC(CC(C)C)c3ccc(Cl)cc3)cccc2n1 (centres unmarked) [Compound 930, ethyl 2-(5-{[2-(4-chlorophenyl)-4-methylpentyl]carbamoyl}imidazo[1,2-a]pyridin-2-yl)-3-pyridin-2-ylpropanoate]
CCOC(=O)C(Cc1ccccc1)c1cn2c(C(=O)NCC(CC(C)C)c3ccc(Cl)cc3)cccc2n1 (centres unmarked) [Compound 931, ethyl 2-(5-{[2-(4-chlorophenyl)-4-methylpentyl]carbamoyl}imidazo[1,2-a]pyridin-2-yl)-3-phenylpropanoate]
CCOC(=O)C(Cc1ccc(Cl)cc1)c1cn2c(C(=O)NCC(CC(C)C)c3ccc(Cl)cc3)cccc2n1 (centres unmarked) [Compound 932, ethyl 3-(4-chlorophenyl)-2-(5-{[2-(4-chlorophenyl)-4-methylpentyl]carbamoyl}imidazo [1,2-a]pyridin-2-yl)propanoate]
CCOC(=O)C(Cc1ccccc1)c1cn2c(C(=O)NCC3(c4ccc(Cl)cc4)CCCCC3)cccc2n1 (centres unmarked) [Compound 933, ethyl 2-[5-({[1-(4-chlorophenyl)cyclohexyl]methyl}carbamoyl)imidazo[1,2-a]pyridin-2-yl]-3-phenylpropanoate]
CCOC(=O)C(Cc1ccc(Cl)cc1)c1cn2c(C(=O)NCC3(c4ccc(Cl)cc4)CCCCC3)cccc2n1 (centres unmarked) [Compound 934, ethyl 3-(4-chlorophenyl)-2-[5-({[1-(4-chlorophenyl)cyclohexyl]methyl}carbamoyl)imidazo[1,2-a]pyridin-2-yl]propanoate]
O=C(NCC1(c2ccc(Cl)cc2)CCCCC1)c1cccc2nc(C(Cc3ccc(Cl)cc3)C(=O)O)cn12 (centres unmarked) [Compound 935, 3-(4-chlorophenyl)-2-[5-({[1-(4-chlorophenyl)cyclohexyl]methyl}carbamoyl)imidazo[1,2-a]pyridin-2-yl] propanoic acid]
O=C(NCC1(c2ccc(Cl)cc2)CCCCC1)c1cccc2nc(C(Cc3ccccc3)C(=O)O)cn12 (centres unmarked) [Compound 936, 2-[5-({[1-(4-chlorophenyl)cyclohexyl]methyl}carbamoyl)imidazo[1,2-a]pyridin-2-yl]-3-phenylpropanoic acid]
O=C(NCC1(c2ccc(Cl)cc2)CCCCC1)c1cccc2nc(C(Cc3ccccn3)C(=O)O)cn12 (centres unmarked) [Compound 937, 2-[5-({[1-(4-chlorophenyl)cyclohexyl]methyl}carbamoyl)imidazo[1,2-a]pyridin-2-yl]-3-pyridin-2-ylpropanoic acid]
CC(C)CC(CNC(=O)c1cccc2nc(C(Cc3ccccn3)C(=O)O)cn12)c1ccc(Cl)cc1 (centres unmarked) [Compound 938, 2-(5-{[2-(4-chlorophenyl)-4-methylpentyl]carbamoyl}imidazo[1,2-a]pyridin-2-yl)-3-pyridin-2-ylpropanoic acid]
CC(C)CC(CNC(=O)c1cccc2nc(C(Cc3ccccc3)C(=O)O)cn12)c1ccc(Cl)cc1 (centres unmarked) [Compound 939, 2-(5-{[2-(4-chlorophenyl)-4-methylpentyl]carbamoyl}imidazo[1,2-a]pyridin-2-yl)-3-phenylpropanoic acid]
CC(C)CC(CNC(=O)c1cccc2nc(C(Cc3ccc(Cl)cc3)C(=O)O)cn12)c1ccc(Cl)cc1 (centres unmarked) [Compound 940, 3-(4-chlorophenyl)-2-(5-{[2-(4-chlorophenyl)-4-methylpentyl]carbamoyl}imidazo[1,2-a]pyridin-2-yl) propanoic acid]
